Our source for the SUMO and c-Myc values is patent US11578079B2, “SUMO inhibitor compounds and uses thereof” (CITY OF HOPE, priority 2018, dated 2023).

One experiment deals with T1, SUMO (Homo sapiens, UniProt Q9UBT2).
T1 sequence (Q9UBT2 1-640): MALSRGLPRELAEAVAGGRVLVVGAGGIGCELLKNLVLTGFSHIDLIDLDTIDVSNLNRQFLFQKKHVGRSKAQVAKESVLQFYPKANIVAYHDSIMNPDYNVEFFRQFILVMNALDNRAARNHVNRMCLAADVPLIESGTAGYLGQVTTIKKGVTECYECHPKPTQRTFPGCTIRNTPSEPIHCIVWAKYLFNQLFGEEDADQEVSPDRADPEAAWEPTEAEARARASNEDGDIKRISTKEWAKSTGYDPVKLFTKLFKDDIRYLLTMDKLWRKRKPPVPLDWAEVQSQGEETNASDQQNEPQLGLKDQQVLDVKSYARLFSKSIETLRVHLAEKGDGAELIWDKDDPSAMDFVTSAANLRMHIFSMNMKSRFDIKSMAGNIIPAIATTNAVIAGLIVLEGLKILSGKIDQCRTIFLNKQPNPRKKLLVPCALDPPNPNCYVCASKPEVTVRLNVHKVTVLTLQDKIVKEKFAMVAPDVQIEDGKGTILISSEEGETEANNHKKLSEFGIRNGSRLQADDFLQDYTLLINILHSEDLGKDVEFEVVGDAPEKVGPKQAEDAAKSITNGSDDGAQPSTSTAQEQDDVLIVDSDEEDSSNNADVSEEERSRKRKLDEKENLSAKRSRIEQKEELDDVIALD
T1 sequence (Q9UBE0 1-346 partner): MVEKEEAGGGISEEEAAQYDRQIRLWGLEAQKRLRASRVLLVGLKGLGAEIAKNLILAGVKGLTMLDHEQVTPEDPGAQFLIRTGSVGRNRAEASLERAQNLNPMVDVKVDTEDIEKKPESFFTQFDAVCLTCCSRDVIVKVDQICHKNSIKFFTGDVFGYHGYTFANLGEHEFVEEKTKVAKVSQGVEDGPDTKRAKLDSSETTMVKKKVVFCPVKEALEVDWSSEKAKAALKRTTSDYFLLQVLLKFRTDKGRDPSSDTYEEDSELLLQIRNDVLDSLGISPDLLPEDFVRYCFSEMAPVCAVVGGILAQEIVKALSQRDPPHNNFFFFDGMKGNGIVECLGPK
As to the kind of experiment: SUMO activity (Table I, biological activities). More on the design: key: + (less active); ++ (active); +++ (most active). It is filed as biochemical.

Another experiment concerns c-Myc. As to the kind of experiment: c-Myc activity (Table I, biological activities). Also noted: key: + (less active); ++ (active); +++ (most active).

With `COC(=O)C1=C(C(=O)NCc2ccncc2)C2C=CC1(C(Cc1ccccc1)Nc1cc(F)cc(Cl)c1)O2` (centres unmarked) [Compound 216], at SUMO, the SUMO entry is “++”. The c-Myc result with c-Myc is recorded as “++”.
`COC(=O)C1=C(C(=O)OC)C2(C(Nc3ccccc3)c3ccccc3)C=CC1O2` (centres unmarked) [Compound 165]: on SUMO, the SUMO result is “++”. The c-Myc result in the experiment on c-Myc is “+”.
On to `CCOC(=O)C1=C(C(=O)Nc2ccc(Cl)cc2)C2C=CC1(C(Nc1ccccc1)c1ccc(CN3CCOCC3)cc1)O2` (centres unmarked) [Compound 606], for which, at SUMO, the SUMO entry is given as “++”. Further, the c-Myc entry with c-Myc is reported as “+”.
On to `CC12C=CC(C(Cc3ccccc3)Nc3ccccc3)(C=C1C(=O)c1ccc(F)cc1)O2` (centres unmarked) [Compound 526], for which the SUMO result at SUMO is on record as “+”. Also, the c-Myc entry in the experiment on c-Myc was “+”.
`COC(=O)C1=C(C(=O)NNc2ccccc2)C2C=CC1(C(Cc1ccccc1)Nc1ccccc1)O2` (centres unmarked) [Compound 200]: the SUMO result on SUMO is “++”. For the same compound, in the experiment with c-Myc, the c-Myc entry was “++”.
`CCOC(=O)C1=C(C(=O)Nc2ccc(OC)cc2)C2(C)C=CC1(C(Nc1ccccc1)c1ccc(CN3CCOCC3)cc1)O2` (centres unmarked) [Compound 581]: at SUMO, the SUMO entry is “+”. Also, the c-Myc entry in the experiment with c-Myc was “+”.
`COC(=O)C1=C(C(=O)NCCN2CCCC2)C2C=CC1(C(Cc1ccc(Cl)cc1)Nc1cc(F)cc(F)c1)O2` (centres unmarked) [Compound 441]: the SUMO entry on SUMO is “+++”. Also, the c-Myc entry in the experiment with c-Myc was “++”.
In the case of `COC(=O)C1=C(C(=O)Nc2ccc(C)c(F)c2)C2C=CC1(C(Cc1ccccc1)Nc1ccccc1)O2` (centres unmarked) [Compound 285], on SUMO, the SUMO result was “++”. Also, the c-Myc result with c-Myc is on record as “++”.
Take `COC(=O)C1=C(C(=O)NCCN(C)C)C2(C(Cc3ccccc3)Nc3cc(F)cc(F)c3)C=CC1O2` (centres unmarked) [Compound 401]: the SUMO entry at SUMO is “++”. Moreover, in the experiment with c-Myc, the c-Myc entry is given as “++”.
As for `COC(=O)C1=C(C(=O)Nc2ccc(C)c(F)c2)C2C=CC1(C(Oc1ccccc1)c1ccc(CN3CCOCC3)cc1)O2` (centres unmarked) [Compound 496], the SUMO result at SUMO is “+”. Also, in the experiment on c-Myc, the c-Myc entry is recorded as “+”.
With `COC(=O)C1=C(C(=O)OC)C2(C(Cc3ccc(C(F)(F)F)cc3)Nc3ccccc3)C=CC1O2` (centres unmarked) [Compound 422], the SUMO result at SUMO is reported as “++”. Also, in the experiment with c-Myc, the c-Myc result is recorded as “+”.
On the same counts, the results for `COC(=O)C1=C(C(=O)Nc2ccc(OCCN3CCOCC3)cc2)C2C=CC1(C(Cc1ccccc1)Nc1ccccc1)O2` (centres unmarked) [Compound 502] are “+++” and “+”.
Take `COC(=O)C1=C(C(=O)NNc2ccccc2)C2C=CC1(C(Cc1ccccc1)Nc1cc(F)cc(F)c1)O2` (centres unmarked) [Compound 205]: on SUMO, the SUMO result is listed as “++”. Moreover, the c-Myc result in the experiment with c-Myc is “++”.
As to `COC(=O)C1=C(C(=O)NC2CCN(C)CC2)C2C=CC1(C(Cc1ccccc1)Nc1cccc(Oc3ccccc3)c1)O2` (centres unmarked) [Compound 320], the SUMO entry at SUMO is recorded as “+++”. Besides, the c-Myc entry in the experiment on c-Myc is reported as “++”.
As for `COC(=O)C1=C(C(=O)Nc2ccc(C)nc2)C2CCC1(C(Cc1ccccc1)Nc1ccccc1)O2` (centres unmarked) [Compound 349], on SUMO, the SUMO entry was “+”. In the experiment on c-Myc, the c-Myc entry is reported as “+”.
As for `C=CCCC(Nc1ccccc1)C12C=CC(O1)C(C(=O)OC)=C2C(=O)OC` (centres unmarked) [Compound 181], on SUMO, the SUMO entry is “++”. The c-Myc entry with c-Myc is “+”.
For `COC(=O)C1=C(C(=O)NCc2ccncc2)C2C=CC1(C(Cc1ccccc1)Nc1ccccc1)O2` (centres unmarked) [Compound 201], on SUMO, the SUMO entry is listed as “++”. In the experiment with c-Myc, the c-Myc result is reported as “+”.
In the case of `COC(=O)C1=C(C(=O)NC2CCN(C(=O)C3CC3)CC2)C2C=CC1(C(Cc1ccccc1)Nc1ccccc1)O2` (centres unmarked) [Compound 377], the SUMO entry on SUMO is listed as “++”. The c-Myc entry in the experiment with c-Myc is “+”.
In the case of `COC(=O)C1=C(C(=O)NC2CCN(C)CC2)C2C=CC1(C(Cc1ccccc1)Nc1ccccc1)O2` (centres unmarked) [Compound 195], the SUMO result at SUMO was “+++”. Besides, the c-Myc result in the experiment with c-Myc is on record as “++”.
Consider `COC(=O)C1=C(C(=O)NCc2ccccn2)C2OC1(C(Cc1ccccc1)Oc1ccccc1)C1OC21` (centres unmarked) [Compound 547], for which, at SUMO, the SUMO result was “++”. Further, in the experiment with c-Myc, the c-Myc entry is “++”.
For the compound `COC(=O)C1=C(C(=O)Nc2cccc(OC)c2)C2C=CC1(C(Cc1ccccc1)Nc1ccccc1)O2` (centres unmarked) [Compound 180], the SUMO result on SUMO is “+”. In addition, the c-Myc entry with c-Myc is listed as “+”.
As for `CCN(CC)CCNC(=O)C1=C(C(=O)OC)C2(C(Cc3ccccc3)Nc3ccc(F)cc3F)C=CC1O2` (centres unmarked) [Compound 412], at SUMO, the SUMO result is “++”. Besides, the c-Myc entry with c-Myc is given as “+”.
For the compound `COC(=O)C1=C(C(=O)Nc2ccc(C)nc2)C2C=CC1(C(Cc1ccccc1)Oc1ccccc1)O2` (centres unmarked) [Compound 333], on SUMO, the SUMO result is on record as “+”. Also, in the experiment on c-Myc, the c-Myc result is recorded as “+”.
Regarding `COC(=O)C1=C(C(=O)OC)C2(C(Cc3ccc(Cl)cc3)Nc3cc(F)cc(F)c3)C=CC1O2` (centres unmarked) [Compound 425], the SUMO entry on SUMO is reported as “++”. The c-Myc entry in the experiment on c-Myc is “+”.
With `COC(=O)C1=C(C(=O)NCCN(C)C)C2C=CC1(C(Cc1ccccc1)Nc1c(F)cccc1F)O2` (centres unmarked) [Compound 432], the SUMO result on SUMO is “++”. The c-Myc result in the experiment with c-Myc is given as “+”.
Regarding `CCOC(=O)C1=C(C(=O)Nc2ccc(C)c(F)c2)C2C=CC1(C(Nc1ccccc1)c1ccc(CN3CCOCC3)cc1)O2` (centres unmarked) [Compound 558], on SUMO, the SUMO result was “+”. Also, the c-Myc result in the experiment on c-Myc is “+”.
For the compound `COC(=O)C1=C(C(=O)NCCN(C)C)C2C=CC1(C(Cc1ccccc1)Nc1ccc(F)cc1)O2` (centres unmarked) [Compound 264], the SUMO entry on SUMO is on record as “+++”. Moreover, in the experiment with c-Myc, the c-Myc result is reported as “++”.
As to `CCOC(=O)C1=C(C(=O)N(C)C)C2C=CC1(C(Cc1ccccc1)Nc1ccccc1)O2` (centres unmarked) [Compound 593], the SUMO result at SUMO is reported as “+”. Further, the c-Myc result in the experiment with c-Myc is “+”.
Regarding `COC(=O)C1=C(C(=O)N(C)CCN(C)C)C2C=CC1(C(Cc1ccccc1)Nc1ccccc1)O2` (centres unmarked) [Compound 388], the SUMO result at SUMO is “+”. The c-Myc result with c-Myc was “+”.
As for `CCOC(=O)C1=C(C(F)(F)F)C2(C(Cc3ccccc3)Nc3ccccc3)C=CC1O2` (centres unmarked) [Compound 298], the SUMO result at SUMO is listed as “++”. The c-Myc result in the experiment on c-Myc is “+”.
On the same counts, the results for `COC(=O)C1=C(C(=O)OC)C2(C(Nc3ccccc3)C3CCCC3)C=CC1O2` (centres unmarked) [Compound 186] are “++” and “+”.
On the same counts, the results for `CCOC(=O)C1=C(C(=O)Nc2ccccc2F)C2C=CC1(C(Nc1ccccc1)c1ccc(CN3CCOCC3)cc1)O2` (centres unmarked) [Compound 595] are “++” and “+”.
Take `COC(=O)C1=C(C(=O)NCCN(C)C)C2C=CC1(C(Cc1ccc(F)cc1)Nc1cc(F)cc(Cl)c1)O2` (centres unmarked) [Compound 452]: at SUMO, the SUMO entry is “++”. In the experiment with c-Myc, the c-Myc entry is recorded as “+”.
As for `COC(=O)C1=C(C(=O)Nc2ccc(N3CCN(C)CC3)cc2)C2CCC1(C(Cc1ccccc1)Nc1ccccc1)O2` (centres unmarked) [Compound 371], the SUMO result on SUMO is on record as “+”. For the same compound, the c-Myc result in the experiment with c-Myc is “+”.
With `CCOC(=O)C1=C(C(=O)Nc2ccccc2)C2C=CC1(C(Nc1ccccc1)c1ccc(CN3CCOCC3)cc1)O2` (centres unmarked) [Compound 604], on SUMO, the SUMO result is on record as “++”. Also, in the experiment with c-Myc, the c-Myc result is listed as “+”.
Consider `CCOC(=O)C1=C(C(=O)Nc2ccc(C)nc2)C2C=CC1(C(Nc1ccccc1)c1ccc(CN3CCOCC3)cc1)O2` (centres unmarked) [Compound 573], for which the SUMO result on SUMO was “+”. The c-Myc entry in the experiment on c-Myc is listed as “+”.
For the compound `COC(=O)C1=C(C(=O)NC2CCN(C(=O)c3ccc(C#N)cc3)CC2)C2C=CC1(C(Cc1ccccc1)Nc1ccccc1)O2` (centres unmarked) [Compound 379], the SUMO result at SUMO is reported as “++”. Besides, the c-Myc result in the experiment on c-Myc is given as “+”.
